For one series, the target named is T1, ORP4L-myc-his (Homo sapiens, UniProt Q969R2).
T1 sequence (Q969R2 1-916): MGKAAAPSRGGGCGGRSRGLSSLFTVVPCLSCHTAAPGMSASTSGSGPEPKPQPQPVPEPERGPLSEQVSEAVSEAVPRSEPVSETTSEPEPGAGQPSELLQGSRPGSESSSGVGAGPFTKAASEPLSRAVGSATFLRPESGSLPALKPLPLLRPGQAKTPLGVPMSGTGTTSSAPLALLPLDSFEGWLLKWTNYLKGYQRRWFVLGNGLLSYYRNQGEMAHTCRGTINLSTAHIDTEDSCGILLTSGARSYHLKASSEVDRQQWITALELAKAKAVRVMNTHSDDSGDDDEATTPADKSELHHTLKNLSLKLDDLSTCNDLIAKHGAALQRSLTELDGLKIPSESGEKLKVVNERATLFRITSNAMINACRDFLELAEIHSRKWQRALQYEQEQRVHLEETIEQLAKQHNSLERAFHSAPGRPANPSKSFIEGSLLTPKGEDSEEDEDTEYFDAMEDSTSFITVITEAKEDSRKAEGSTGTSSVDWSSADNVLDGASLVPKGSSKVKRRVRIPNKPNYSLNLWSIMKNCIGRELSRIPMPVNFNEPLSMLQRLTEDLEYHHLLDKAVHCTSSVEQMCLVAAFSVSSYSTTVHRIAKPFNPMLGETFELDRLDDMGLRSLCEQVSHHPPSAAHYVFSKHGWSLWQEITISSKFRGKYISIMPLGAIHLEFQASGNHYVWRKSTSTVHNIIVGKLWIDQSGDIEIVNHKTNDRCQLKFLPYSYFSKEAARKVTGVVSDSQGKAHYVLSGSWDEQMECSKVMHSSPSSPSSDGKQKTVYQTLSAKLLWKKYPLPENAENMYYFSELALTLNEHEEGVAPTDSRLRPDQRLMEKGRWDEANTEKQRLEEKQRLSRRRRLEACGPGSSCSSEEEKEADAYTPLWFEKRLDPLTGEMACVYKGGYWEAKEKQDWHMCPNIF
Briefly: [3H]-25-hydroxycholesterol charcoal-dextran binding assay with ORP4L-myc-his. The note with it: for Ki: read-out: [^3H]-25-OHC K1 (nM) ORP4L-myc-his, competition with 20 nM [3H]-25-OHC, HEK-293T S100 lysate, 4° C., 16 h; for fold lower affinity for ORP4L than for OSBP1: ratio of Ki values.

The target of the next series is T2, OSBP1-myc-his (Homo sapiens, UniProt P22059).
T2 construct: made in house; host or cells: HEK-293T (transient transfection; S100 lysate, not purified)
T2 sequence (P22059 1-807): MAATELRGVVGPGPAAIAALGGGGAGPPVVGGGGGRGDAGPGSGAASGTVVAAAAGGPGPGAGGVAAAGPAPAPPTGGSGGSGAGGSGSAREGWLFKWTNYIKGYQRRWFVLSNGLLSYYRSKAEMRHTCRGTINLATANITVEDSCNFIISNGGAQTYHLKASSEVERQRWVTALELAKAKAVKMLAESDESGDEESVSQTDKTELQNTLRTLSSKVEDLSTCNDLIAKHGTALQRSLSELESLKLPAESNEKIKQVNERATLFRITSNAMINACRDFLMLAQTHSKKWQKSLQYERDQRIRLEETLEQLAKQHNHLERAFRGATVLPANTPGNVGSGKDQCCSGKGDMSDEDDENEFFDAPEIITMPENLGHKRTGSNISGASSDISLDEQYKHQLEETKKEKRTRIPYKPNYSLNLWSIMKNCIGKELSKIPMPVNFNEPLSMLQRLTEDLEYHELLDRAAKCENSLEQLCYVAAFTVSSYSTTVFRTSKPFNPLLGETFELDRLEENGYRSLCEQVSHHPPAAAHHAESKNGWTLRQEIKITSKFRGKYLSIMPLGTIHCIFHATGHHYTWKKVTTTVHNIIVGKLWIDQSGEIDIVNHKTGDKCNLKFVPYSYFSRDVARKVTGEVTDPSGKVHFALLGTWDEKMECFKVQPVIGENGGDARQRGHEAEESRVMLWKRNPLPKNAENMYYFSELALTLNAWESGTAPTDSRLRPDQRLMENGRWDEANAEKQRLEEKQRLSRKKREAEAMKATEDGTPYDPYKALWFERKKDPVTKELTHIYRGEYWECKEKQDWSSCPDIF
Nature of the series: [3H]-25-hydroxycholesterol charcoal-dextran binding assay with OSBP1-myc-his. The note with it: for Ki: competition with 20 nM [3H]-25-OHC, HEK-293T S100 lysate, 4° C., 16 h, read-out: [^3H]-25-OHC K1 (nM) OSBP1-myc-his. From the text: [^3H]-25-Hydroxycholesterol charcoal-dextran binding assay.
Methods are described above in the General Methods section.

In a further series the test system is HCT-116 cells. Nature of the series: Growth inhibition with 25-OHC co-administration. Type of series: cell-based, human. The note with it: for effect of 25-OHC co-administration on the antiproliferative activity: 10 μM 25-OHC for 1 and 2. The procedure:
25-OHC (11) is a high-affinity ligand of OSBP1 and ORP4L that is not cytotoxic at concentrations up to 10 μM. Example 1 established that the ORPphilins compete with 25-OHC for binding to OSBP1 and ORP4L (FIG. 2D,E). Therefore, if OSBP1 and ORP4L mediate the biological activities of these compounds, co-administration of sub-lethal doses of 25-OHC with the ORPphilins should inhibit binding of the ORPphilins to OSBP1 and ORP4L, thereby desensitizing cells to the cytotoxic effects of the ORPphilins.

For another series, the system named is CHO-7 cells. Briefly: Antiproliferative activity in CHO-7 cells, lipoprotein-deficient media. Type of series: cell-based. The source says:
FIG. 4B is a bar graph depicting how removal of lipoproteins from the growth medium sensitizes CHO-7 cells to 25-OHC but not 1, 2, or 4a. Mean±s.d. of two individual experiments. Bref A, brefeldin A.
Insig is a chief regulator of SREBP-dependent cholesterol homeostasis, and 25-OHC exerts much of its ability to inhibit cholesterol biosynthesis through its binding to Insig. The possibility that suppression of the antiproliferative activity of the ORPphilins by 25-OHC could be due to displacement of these compounds from NPC1 or Insig was considered. […] In addition, the antiproliferative activity of 1-4a was evaluated in the CHO-7 cell line, which is a cell line adapted to grow in lipoprotein-deficient media. In lipoprotein-deficient media, CHO-7 cells are dependent on Insig-mediated cholesterol biosynthesis for survival, and are therefore sensitive to 25-OHC binding to Insig. Unlike 25-OHC, the antiproliferative activity of 1, 2, and 4a in CHO-7 cells was not enhanced in lipoprotein-deficient media.

Protocol for ORP4L-myc-his: [^3H]-25-Hydroxycholesterol charcoal-dextran binding assay. […] These vectors were transfected into HEK-293T cells using Lipofectamine™2000 (Invitrogen), and 48 h after transfection, on-plate lysis of the transfected cells with the M-Per®/HALT™ with EDTA (ThermoScientific) reagent was performed, followed by ultracentrifugation at 100,000 g. The S100 lysate was diluted to 0.2 mg/mL, aliquoted and stored at −80° C. until use. The HEK-293T OSBP1-, ORP4L- or lacZ-myc-his lysate was incubated with [^3H]-25-hydroxycholesterol at 4° C. for 16 h in 96-well plates. After incubation, charcoal/dextran (C/D) was added to the wells for 30 min of shaking at RT, followed by centrifugation for 15 min at 1900 g to pellet the C/D. The C/D-cleared lysate was added to MicroScint™-20 (PerkinElmer) scintillation fluid, and the remaining protein-bound radiolabel was quantified using a TopCount™ scintillation counter. [^3H]-25-hydroxycholesterol binding curves and competition curves were repeated at least three times.
Lysates were thawed on ice, with brief periods of hand warming. Both the ^3H-25-OHC direct binding assays and the ^3H-25-OHC competition binding assays were set up similarly, with a large stock of binding assay lysate being prepared, then 73.5 μL of the binding assay mixture dispensed using a multi-channel pipettor into “V”-shaped 96-well plates. For the ^3H-25-OHC direct binding assay, 1.5 μL of ^3H-25-OHC and ^3H-25-OHC/40×25-OHC added to the wells in dilutions in 100% ethanol. For the ^3H-25-OHC competition binding assays, ^3H-25-OHC was added to the large stock of binding assay lysate to a final concentration of 20 nM. This ^3H-25-OHC-containing binding lysate was then dispensed using a multi-channel pipettor into the 96-well plates. Then, 1.5 μL of a serial dilution of the inhibitors in either 100% ethanol (25-OHC) or DMSO (the ORPphilins) was added to each well.
The binding lysate used in each well of the 96-well plate consisted of 60 μL of 0.2 mg/mL S100 lysate, 7.5 μL 20% PVA, and 5.6 μL 2M KCl. For ^3H-25-OHC binding curve experiments, 0.4 μL of buffer was then added (total volume per well: 73.5 μL). For the ^3H-25-OHC inhibition competition assays, 0.11 μL of 13.2 μM ^3H-25-OHC and 0.29 μL binding buffer was added for each well (total volume per well: 73.5 μL).
Binding assays were incubated, standing, for 16 h at 4° C. Then 30 μL of the rt C/D solution was multichannel pipetted into new “V’ shaped 96-well plates, and 60 μL of the binding lysate mixture was then added. The plates were briefly, lightly vortexed (˜10 sec), 10 and then rocked at 250 rpm for 30 min at rt. The plates were then centrifuged at 1900 g for 15 min at 4° C. in Microplate Carriers (Sorvall cat. #75006449S) in a Sorvall Legend RT centrifuge. Carefully so as to not disturb the C/D pellet, 30 μL of the supernatant was transferred to 170 μL of Microscint-20 in the OptiPlates. The plates were sealed with the TopSealA-Films, and vigorously vortexed (max speed, >1 min). ^3H-25-OHC detection in the wells was then performed using a TopCount Scintillation detector, counting each well for 2 min. Data was graphed and analyzed using GraphPad PrismS, using non-linear regression to determine KD and K1 values.
Binding experiments were performed at 4° C. for 16 h. Unbound sterol was removed using dextran-coated charcoal, and protein-bound sterol left in the supernatant was quantified by scintillation counting. Ki-values were determined as mean±s.d. from at least three independent experiments.

Consider `C[C@H](CCCC(C)(C)O)[C@H]1CC[C@H]2[C@@H]3CC=C4C[C@@H](O)CC[C@]4(C)[C@H]3CC[C@]12C` [Compound 25-OHC, 25-hydroxycholesterol], for which the Kd (in general, the concentration at which binding is half-saturated) on ORP4L-myc-his (read-out: Kd of [3H]-25-hydroxycholesterol, ORP4L, direct binding) was 54 ± 23 nM; on OSBP1-myc-his (direct binding), 32 ± 14 nM. In the series on HCT-116 cells (concentrations up to 10 μM, cell line not given at the place), the cytotoxicity result is “not cytotoxic”.

Consider `COc1ccc(C(=O)O[C@H]2[C@H](O[C@@H]3[C@@H](OC(C)=O)[C@H](O[C@H]4C[C@H]5[C@@H]6CC=C7C[C@@H](O)CC[C@]7(C)[C@H]6CC[C@]5(C)[C@@]4(O)[C@H](C)C(=O)CCC(C)C)OC[C@@H]3O)OC[C@@H](O)[C@@H]2O)cc1` [OSW-1], for which the results for the Ki at ORP4L-myc-his and on OSBP1-myc-his were 54 ± 11 nM and 26 ± 9 nM, respectively. For the same molecule, in the series on HCT-116 cells, the “effect of 25-OHC co-administration on the antiproliferative activity” value is recorded as “nearly complete desensitization”. Besides, the “antiproliferative activity in lipoprotein-deficient media” value in the series with CHO-7 cells is “not enhanced”.

Take `C[C@@H]1[C@]2(O[C@H]3C=C4[C@@H]5CC[C@H]6Cc7nc8c(nc7C[C@]6(C)[C@H]5C[C@@H](O)[C@]4(C)[C@]31O)C[C@@H]1CC[C@H]3C4=CC[C@@H]5[C@H](C)[C@@]6(OC[C@]45C(=O)C[C@@H]3[C@@]1(C)C8)OC(C)(C)C[C@H]6O)O[C@](C)(CO)C[C@H]2O` [cephalostatin 1, Cephalostatin 1]: the Ki at ORP4L-myc-his is 78 ± 15 nM; at OSBP1-myc-his, 39 ± 10 nM. In the series with HCT-116 cells, the “effect of 25-OHC co-administration on the antiproliferative activity” value is “nearly complete desensitization”. Besides, the “antiproliferative activity in lipoprotein-deficient media” value with CHO-7 cells is reported as “not enhanced”.

Regarding schweinfurthin A, the “fold lower affinity for ORP4L than for OSBP1” value on ORP4L-myc-his is “approximately 40 fold”; on ORP4L-myc-his (listed as 4a), ~40 fold. In addition, the Ki on ORP4L-myc-his was 2600 ± 570 nM; on OSBP1-myc-his, 68 ± 23 nM. Also, the “antiproliferative activity in lipoprotein-deficient media” value in the series with CHO-7 cells was “not enhanced”.

The values are drawn from patent US9790253B2, “OSW-1 analogs and conjugates, and uses thereof” (priority 2011, dated 2017).
